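Where inhibition never reached the appropriate level, the endpoint shown equals the highest concentration tested. Otherwise, values were interpolated linearly from a five-concentration, 48-hour dose response in 96-well plates. The concentration for 50% growth inhibition is given as GI50. TGI: total growth inhibition.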
Assays:
Experiment in all cases: DTP human tumour cell line panel, 48 h
NCI-H23 lung = system: NCI-H23 lung
NCI-H460 lung = system: NCI-H460 lung
NCI-H522 lung = system: NCI-H522 lung
NCI/ADR-RES ovarian = system: NCI/ADR-RES ovarian
OVCAR-3 ovarian = system: OVCAR-3 ovarian
OVCAR-4 ovarian = system: OVCAR-4 ovarian
OVCAR-5 ovarian = system: OVCAR-5 ovarian
OVCAR-8 ovarian = system: OVCAR-8 ovarian
PC-3 prostate = system: PC-3 prostate
RPMI-8226 leukemia = system: RPMI-8226 leukemia
RXF 393 renal = system: RXF 393 renal
SF-268 CNS = system: SF-268 CNS
SF-295 CNS = system: SF-295 CNS
SF-539 CNS = system: SF-539 CNS
SK-MEL-2 melanoma = system: SK-MEL-2 melanoma
SK-MEL-28 melanoma = system: SK-MEL-28 melanoma
SK-MEL-5 melanoma = system: SK-MEL-5 melanoma
SK-OV-3 ovarian = system: SK-OV-3 ovarian
SN12C renal = system: SN12C renal
SNB-19 CNS = system: SNB-19 CNS
SNB-75 CNS = system: SNB-75 CNS
SR leukemia = system: SR leukemia
SW-620 colon = system: SW-620 colon
T-47D breast = system: T-47D breast
TK-10 renal = system: TK-10 renal
U251 CNS = system: U251 CNS
UACC-257 melanoma = system: UACC-257 melanoma
UACC-62 melanoma = system: UACC-62 melanoma
UO-31 renal = system: UO-31 renal

COC(=O)c1c(C)c2n(c1C)C(=O)C(c1ccccc1)=C2
GI50 (NCI-H23 lung): > 58.3 µM | TGI (NCI-H23 lung): > 100 µM | GI50 (NCI-H460 lung): 58.2 µM | TGI (NCI-H460 lung): > 100 µM | GI50 (NCI-H522 lung): 58.2 µM | TGI (NCI-H522 lung): > 100 µM | GI50 (NCI/ADR-RES ovarian): 53.2 µM | TGI (NCI/ADR-RES ovarian): > 100 µM | GI50 (OVCAR-3 ovarian): 45.4 µM | TGI (OVCAR-3 ovarian): > 100 µM | GI50 (OVCAR-4 ovarian): 50.4 µM | TGI (OVCAR-4 ovarian): > 100 µM | GI50 (OVCAR-5 ovarian): > 91.9 µM | TGI (OVCAR-5 ovarian): > 100 µM | GI50 (OVCAR-8 ovarian): > 90.9 µM | TGI (OVCAR-8 ovarian): > 100 µM | GI50 (PC-3 prostate): > 80.6 µM | TGI (PC-3 prostate): > 100 µM | GI50 (RPMI-8226 leukemia): 25.9 µM | TGI (RPMI-8226 leukemia): > 100 µM | GI50 (RXF 393 renal): 55 µM | TGI (RXF 393 renal): > 100 µM | GI50 (SF-268 CNS): > 100 µM | TGI (SF-268 CNS): > 100 µM | GI50 (SF-295 CNS): > 61.9 µM | TGI (SF-295 CNS): > 100 µM | GI50 (SF-539 CNS): > 88.8 µM | TGI (SF-539 CNS): > 100 µM | GI50 (SK-MEL-2 melanoma): > 100 µM | TGI (SK-MEL-2 melanoma): > 100 µM | GI50 (SK-MEL-28 melanoma): > 87.8 µM | TGI (SK-MEL-28 melanoma): > 100 µM | GI50 (SK-MEL-5 melanoma): 26.9 µM | TGI (SK-MEL-5 melanoma): > 100 µM | GI50 (SK-OV-3 ovarian): > 73.9 µM | TGI (SK-OV-3 ovarian): > 100 µM | GI50 (SN12C renal): > 100 µM | TGI (SN12C renal): > 100 µM | GI50 (SNB-19 CNS): > 95.6 µM | TGI (SNB-19 CNS): > 100 µM | GI50 (SNB-75 CNS): 30.1 µM | TGI (SNB-75 CNS): > 100 µM | GI50 (SR leukemia): > 50.1 µM | TGI (SR leukemia): > 100 µM | GI50 (SW-620 colon): 48.6 µM | TGI (SW-620 colon): > 100 µM | GI50 (T-47D breast): 9.38 µM | TGI (T-47D breast): > 100 µM | GI50 (TK-10 renal): 48.2 µM | TGI (TK-10 renal): > 100 µM | GI50 (U251 CNS): 82.8 µM | TGI (U251 CNS): > 100 µM | GI50 (UACC-257 melanoma): > 100 µM | TGI (UACC-257 melanoma): > 100 µM | GI50 (UACC-62 melanoma): 28.1 µM | TGI (UACC-62 melanoma): > 100 µM | GI50 (UO-31 renal): 31.7 µM | TGI (UO-31 renal): > 100 µM

Source: PubChem BioAssay (NCI)
